Assay results as given in patent US20040220239A1, “Inhibitors of serine protease activity methods and compositions for treatment of nitric oxide-induced clinical conditions” (priority 2003, published 2004).
“Also recorded” adds a separate entry of the source.

What was measured:
Assay type in all cases: cell-based
iNOS protein = test: Induction of iNOS protein by LPS and γ-interferon, Western blot; conditions: macrophagic cells, γ-IFN and LPS, FIG. 2
Description: RAW 264.7 macrophage monolayers are treated for 1 hour with α1-antitrypsin (3 mg/ml), followed by costimulation by interferon-γ (10 U/ml), and LPS (1 ng/ml) for 18 hours. The cells are lysed by exposure to lysis solution (50 mm Tris-HCl, pH 8.0, 137 mm NaCl, 10% (v/v) glycerol, 1% (v/v), Nonidet P-40, 1 mM NaF, 10 μg/ml leupeptin, […] aprotinin, 2 mM sodium vanadate, and 1 mM phenylmethylsulfonyl fluoride). Samples containing equivalent amounts of total protein are subjected to SDS-polyacrylamide gel electrophoresis. Western blots of the gels are prepared, non-specific sites blocked by incubation overnight with 5% non-fat dry milk, and iNOS detected by incubation with iNOS anti-serum (Alexis Corporation, 1:1000 in 5% (w/v) bovine serum albumin in a solution of 20 mm Tris-HCl, pH 7.6, 137 mM […], and 0.005% (v/v) Tween 20). Using horseradish peroxidase-conjugated second antibody, the antibody bound to iNOS is detected by enhanced chemiluminescence. The effect of the combination of interferon-γ, and LPS on induction of iNOS in the cell extract and the effect of pretreatment with α1-antitrypsin are measured.

[1] = system: herpes simplex virus (HSV); test: Herpes simplex virus replication; conditions: FIG. 7
NF-κB = test: Electrophoretic mobility shift assay of NF-κB induced by interleukin-18; conditions: induced by incubation with IL-18, EMSA; FIG. 3
cytomegalovirus (CMV) = test: Cytomegalovirus replication in infected RAW 264.5 macrophages; conditions: RAW 264.5 macrophages infected with CMV; FIG. 6
[2] = system: p-ERK (p42/p44 MAP kinase); test: Western blot of p-ERK expression; conditions: FIG. 5
RAW 264.7 macrophages = test: NO release induced by LPS and γ-IFN in macrophagic cells (nitrite, Greiss reagent); conditions: induction with γ-IFN and LPS, FIG. 1, FIG. 4
Description: RAW 264.5 macrophages are selected for measuring the effect of α1-antitrypsin on NO release. RAW 264.7 cell monolayers are pretreated for 1 hour with α1-antitrypsin (0.1-3 mg/ml), followed by costimulation by interferon-γ(10 U/ml), and LPS (1 ng/ml) for 18 hours. Aliquots (100 μl) of supernatant are combined with equal volumes of Greiss reagent and incubated at room temperature for 10 minutes. The colorimetric determination of nitrite concentration is measured by absorbance at 550 nm and quantified with a standard curve. The combination of LPS and interferon-γ is a potent stimulus for NO release in […] macrophages. The effect of α1-antitrypsin at 3 mg/ml on NO expression is measured.

Compound: α1-antitrypsin
- effect on induction of iNOS protein (iNOS protein): inhibits induction of iNOS protein
- effect on replication of HSV [1]: inhibits replication of HSV
- effect on induction of active NF-κB (NF-κB): inhibit the induction of active NF-κB
- effect on CMV replication (cytomegalovirus (CMV)): blocks CMV replication
- effect on level and/or phosphorylation of p-ERK [2]: inhibits the level and/or phosphorylation of p-ERK
- effect on NO levels (measured as NO2-) induced by γ-IFN and LPS (RAW 264.7 macrophages): efficiently block γ-IFN- and LPS-induced NO synthesis; also recorded: inhibits NO levels

Compound: Cc1cccc(Cc2nnc(C(=O)C(NC(=O)[C@@H]3CCCN3C(=O)[C@@H](NC(=O)OCc3ccccc3)C(C)C)C(C)C)o2)c1 (stereo partly drawn) [CE-2072, benzyloxycarbonyl-L-valyl-N-[1-(2-[5-(3-methylbenzyl)-1,3,4-oxadiazolyl]carbonyl)-2-(S)-methylpropyl]-L-prolinamide, reference compound]
- effect on induction of active NF-κB (NF-κB): inhibit the induction of active NF-κB
- effect on NO levels (measured as NO2-) induced by γ-IFN and LPS (RAW 264.7 macrophages): inhibits NO levels
